Assay results taken from patent publication US12234499B2, “Compositions, methods, systems and/or kits for detecting antimicrobial resistance in bacteria” (priority 2016, dated 2025).

How the values were obtained:
Assay in all cases: Growth of enteric bacteria in the presence of TEM (FIG. 1)
Type in all cases: cell-based
[1] = test system: non-carbapenemase producing (NEG) enteric bacteria; conditions: nearly all NEG enteric bacteria
Method: (§1) Non-limiting embodiments of detection tests for enteric and non-fermenting bacteria, with various concentration ranges of one or more antibiotics, and various concentration ranges for one or more inhibitors are shown in FIG. 1-FIG. 24 and FIG. 31. These figures illustrate the concentration of the antibiotic being tested (in μg/ml) along the x-axis (not every concentration is tested in every figure), and the amount of growth of bacteria in the sample in the y-axis. The boxes illustrate the median, interquartile range, non-outlier minimum and maximum; with asterisks representing single outliers. Each figure has a panel for Class A, Class B, and Class D producing bacteria, as well as a panel for non-carbapenemase producing bacteria (NEG). In some embodiments, the detection tests described herein are not performed by imaging a change in cell morphology.
(§2) By way of example, FIG. 1 illustrates a test of various enteric bacteria grown in the presence of several concentrations of TEM.
(§3) In some embodiments, the detection tests can comprise a plurality of wells comprising enteric bacteria and TEM over a range of concentrations of about 12 μg/ml to about 512 μg/ml (FIG. 1).

[2] = test system: enteric bacteria expressing Class D carbapenemase
Method: as §1, §2, §3

[3] = test system: enteric bacteria expressing Class A carbapenemase; conditions: Class A enteric bacterial strains
Method: as §1, §2, §3

[4] = test system: enteric bacteria expressing Class B carbapenemase
Method: as §1, §2, §3

Structure (SMILES): CO[C@@]1(NC(=O)C(C(=O)O)c2ccsc2)C(=O)N2[C@@H](C(=O)O)C(C)(C)S[C@@H]21 (stereo partly drawn) [TEM, disodium 6beta-(2-carboxy-2-thien-3-ylacetamido)-6alpha-methoxypenicillanate]
- sensitivity to TEM [1]: sensitive to lowest concentration
- concentration reached before growth is affected ([2]; Class D enteric bacteria unaffected until this concentration): 192 µg/mL
- MIC ([2]; bacteria expressing Class D, read-out: TEM concentration at which bacteria are sensitive (elevated MIC)): ≥ 128 µg/mL
- concentration at which nearly all strains tested are inhibited [3]: 24 µg/mL
- concentration at which bacteria begin to show sensitivity ([4]; Class B enteric bacteria, decrease in the average growth line): 48 µg/mL
- concentration at which growth of most strains is inhibited ([4]; Class B enterics): 384 µg/mL
